According to ChEMBL document CHEMBL5724806, “Unraveling interindividual differences and functional consequences of gut microbial metabolism of immunosuppressants” (2024):

Key:
Format in all cases: ADME
[1] = The drug is tested on Actinomyces naeslundi strain: DSM43013 for biotransformation under anaerobic condition. The drug concentrations were measured over 6 timepoints collected between 0 and 12 hours of incubation by liquid-chromatography-coupled mass spectrometry (LC–MS); parameters: dose 5 uM, timepoint 0, 1.5, 3, 6, 9, 12 hours; conditions: actinomyces naeslundii, 5 µM
[2] = The drug is tested on Bacteroides caccae strain: DSM19024 for biotransformation under anaerobic condition. The drug concentrations were measured over 6 timepoints collected between 0 and 12 hours of incubation by liquid-chromatography-coupled mass spectrometry (LC–MS); parameters: dose 5 uM, timepoint 0, 1.5, 3, 6, 9, 12 hours; conditions: 5 µM
[3] = The drug is tested on Bacteroides stercoris strain: HM 1036 for biotransformation under anaerobic condition. The drug concentrations were measured over 6 timepoints collected between 0 and 12 hours of incubation by liquid-chromatography-coupled mass spectrometry (LC–MS); parameters: dose 5 uM, timepoint 0, 1.5, 3, 6, 9, 12 hours; conditions: 5 µM
[4] = The drug is tested on Bacteroides thetaiotaomicron strain: DSM2079 for biotransformation under anaerobic condition. The drug concentrations were measured over 6 timepoints collected between 0 and 12 hours of incubation by liquid-chromatography-coupled mass spectrometry (LC–MS); parameters: dose 5 uM, timepoint 0, 1.5, 3, 6, 9, 12 hours; conditions: 5 µM
[5] = The drug is tested on Bacteroides xylanisolvens strain: HM 722 for biotransformation under anaerobic condition. The drug concentrations were measured over 6 timepoints collected between 0 and 12 hours of incubation by liquid-chromatography-coupled mass spectrometry (LC–MS); parameters: dose 5 uM, timepoint 0, 1.5, 3, 6, 9, 12 hours; conditions: 5 µM
[6] = The drug is tested on Parabacteroides merdae strain: DSM19495 for biotransformation under anaerobic condition. The drug concentrations were measured over 6 timepoints collected between 0 and 12 hours of incubation by liquid-chromatography-coupled mass spectrometry (LC–MS); parameters: dose 5 uM, timepoint 0, 1.5, 3, 6, 9, 12 hours; conditions: 5 µM
[7] = The drug is tested on Prevotella copri strain: DSM18205 for biotransformation under anaerobic condition. The drug concentrations were measured over 6 timepoints collected between 0 and 12 hours of incubation by liquid-chromatography-coupled mass spectrometry (LC–MS); parameters: dose 5 uM, timepoint 0, 1.5, 3, 6, 9, 12 hours; conditions: segatella copri, 5 µM
[8] = The drug is tested on Clostridium ramosum strain: DSM1402 for biotransformation under anaerobic condition. The drug concentrations were measured over 6 timepoints collected between 0 and 12 hours of incubation by liquid-chromatography-coupled mass spectrometry (LC–MS); parameters: dose 5 uM, timepoint 0, 1.5, 3, 6, 9, 12 hours; conditions: thomasclavelia ramosa, 5 µM
[9] = The drug is tested on Dorea formicigenerans strain: DSM3992 for biotransformation under anaerobic condition. The drug concentrations were measured over 6 timepoints collected between 0 and 12 hours of incubation by liquid-chromatography-coupled mass spectrometry (LC–MS); parameters: dose 5 uM, timepoint 0, 1.5, 3, 6, 9, 12 hours; conditions: 5 µM
[10] = The drug is tested on Gemella morbillorum strain: DSM20572 for biotransformation under anaerobic condition. The drug concentrations were measured over 6 timepoints collected between 0 and 12 hours of incubation by liquid-chromatography-coupled mass spectrometry (LC–MS); parameters: dose 5 uM, timepoint 0, 1.5, 3, 6, 9, 12 hours; conditions: 5 µM
[11] = The drug is tested on Lactobacillus fermentum strain: DSM20052 for biotransformation under anaerobic condition. The drug concentrations were measured over 6 timepoints collected between 0 and 12 hours of incubation by liquid-chromatography-coupled mass spectrometry (LC–MS); parameters: dose 5 uM, timepoint 0, 1.5, 3, 6, 9, 12 hours; conditions: limosilactobacillus fermentum, 5 µM
[12] = The drug is tested on Akkermansia muciniphila strain: DSM22959 for biotransformation under anaerobic condition. The drug concentrations were measured over 6 timepoints collected between 0 and 12 hours of incubation by liquid-chromatography-coupled mass spectrometry (LC–MS); parameters: dose 5 uM, timepoint 0, 1.5, 3, 6, 9, 12 hours; conditions: 5 µM
[13] = The drug is tested on Capnocytophaga ochracea strain: DSM7271 for biotransformation under microaerobic condition. The drug concentrations were measured over 6 timepoints collected between 0 and 12 hours of incubation by liquid-chromatography-coupled mass spectrometry (LC–MS); parameters: dose 5 uM, timepoint 0, 1.5, 3, 6, 9, 12 hours; conditions: 5 µM
[14] = The drug is tested on Gemella haemolysans strain: DSM107751 for biotransformation under microaerobic condition. The drug concentrations were measured over 6 timepoints collected between 0 and 12 hours of incubation by liquid-chromatography-coupled mass spectrometry (LC–MS); parameters: dose 5 uM, timepoint 0, 1.5, 3, 6, 9, 12 hours; conditions: 5 µM
[15] = The drug is tested on the gut metagenome community of A-02 with ENA study accession number: PRJEB31790 for biotransformation under anaerobic condition. The drug concentrations were measured over 7 timepoints collected between 0 and 12 hours of incubation by liquid-chromatography-coupled mass spectrometry (LC–MS); parameters: dose 5 uM, timepoint 0, 0.75, 1.5, 3, 6, 9, 12 hours; conditions: 5 µM
[16] = The drug is tested on the gut metagenome community of A-04 with ENA study accession number: PRJEB31790 for biotransformation under anaerobic condition. The drug concentrations were measured over 7 timepoints collected between 0 and 12 hours of incubation by liquid-chromatography-coupled mass spectrometry (LC–MS); parameters: dose 5 uM, timepoint 0, 0.75, 1.5, 3, 6, 9, 12 hours; conditions: 5 µM
[17] = The drug is tested on the gut metagenome community of A-05 with ENA study accession number: PRJEB31790 for biotransformation under anaerobic condition. The drug concentrations were measured over 7 timepoints collected between 0 and 12 hours of incubation by liquid-chromatography-coupled mass spectrometry (LC–MS); parameters: dose 5 uM, timepoint 0, 0.75, 1.5, 3, 6, 9, 12 hours; conditions: 5 µM
[18] = The drug is tested on the gut metagenome community of A-07 with ENA study accession number: PRJEB31790 for biotransformation under anaerobic condition. The drug concentrations were measured over 7 timepoints collected between 0 and 12 hours of incubation by liquid-chromatography-coupled mass spectrometry (LC–MS); parameters: dose 5 uM, timepoint 0, 0.75, 1.5, 3, 6, 9, 12 hours; conditions: 5 µM
[19] = The drug is tested on the gut metagenome community of P-01 with ENA study accession number: PRJEB31790 for biotransformation under anaerobic condition. The drug concentrations were measured over 7 timepoints collected between 0 and 12 hours of incubation by liquid-chromatography-coupled mass spectrometry (LC–MS); parameters: dose 5 uM, timepoint 0, 0.75, 1.5, 3, 6, 9, 12 hours; conditions: 5 µM
[20] = The drug is tested on the gut metagenome community of P-04 with ENA study accession number: PRJEB31790 for biotransformation under anaerobic condition. The drug concentrations were measured over 7 timepoints collected between 0 and 12 hours of incubation by liquid-chromatography-coupled mass spectrometry (LC–MS); parameters: dose 5 uM, timepoint 0, 0.75, 1.5, 3, 6, 9, 12 hours; conditions: 5 µM
[21] = The drug is tested on the gut metagenome community of A-01 with ENA study accession number: PRJEB31790 for biotransformation under microaerobic condition. The drug concentrations were measured over 7 timepoints collected between 0 and 12 hours of incubation by liquid-chromatography-coupled mass spectrometry (LC–MS); parameters: dose 5 uM, timepoint 0, 0.75, 1.5, 3, 6, 9, 12 hours; conditions: 5 µM
[22] = The drug is tested on the gut metagenome community of A-04 with ENA study accession number: PRJEB31790 for biotransformation under microaerobic condition. The drug concentrations were measured over 7 timepoints collected between 0 and 12 hours of incubation by liquid-chromatography-coupled mass spectrometry (LC–MS); parameters: dose 5 uM, timepoint 0, 0.75, 1.5, 3, 6, 9, 12 hours; conditions: 5 µM
[23] = The drug is tested on the gut metagenome community of A-07 with ENA study accession number: PRJEB31790 for biotransformation under microaerobic condition. The drug concentrations were measured over 7 timepoints collected between 0 and 12 hours of incubation by liquid-chromatography-coupled mass spectrometry (LC–MS); parameters: dose 5 uM, timepoint 0, 0.75, 1.5, 3, 6, 9, 12 hours; conditions: 5 µM
[24] = The drug is tested on the gut metagenome community of A-09 with ENA study accession number: PRJEB31790 for biotransformation under microaerobic condition. The drug concentrations were measured over 7 timepoints collected between 0 and 12 hours of incubation by liquid-chromatography-coupled mass spectrometry (LC–MS); parameters: dose 5 uM, timepoint 0, 0.75, 1.5, 3, 6, 9, 12 hours; conditions: 5 µM
[25] = The drug is tested on the gut metagenome community of A-10 with ENA study accession number: PRJEB31790 for biotransformation under microaerobic condition. The drug concentrations were measured over 7 timepoints collected between 0 and 12 hours of incubation by liquid-chromatography-coupled mass spectrometry (LC–MS); parameters: dose 5 uM, timepoint 0, 0.75, 1.5, 3, 6, 9, 12 hours; conditions: 5 µM

C[C@H]1C[C@@H]2[C@H]([C@@H](O)C[C@@]3(C)[C@H]2CC[C@]3(O)C(=O)CO)[C@@]2(C)C=CC(=O)C=C12 [METHYLPREDNISOLONE]
Bacterial Biotransformation [1]: Compound NOT metabolized
Bacterial Biotransformation [2]: Compound NOT metabolized
Bacterial Biotransformation [3]: Compound NOT metabolized
Bacterial Biotransformation [4]: Compound NOT metabolized
Bacterial Biotransformation [5]: Compound NOT metabolized
Bacterial Biotransformation [6]: Compound NOT metabolized
Bacterial Biotransformation [7]: Compound NOT metabolized
Bacterial Biotransformation [8]: Compound NOT metabolized
Bacterial Biotransformation [9]: Compound NOT metabolized
Bacterial Biotransformation [10]: Compound NOT metabolized
Bacterial Biotransformation [11]: Compound NOT metabolized
Bacterial Biotransformation [12]: Compound NOT metabolized
Bacterial Biotransformation [13]: Compound NOT metabolized
Bacterial Biotransformation [14]: Compound NOT metabolized
Bacterial Biotransformation [15]: Compound metabolized
Bacterial Biotransformation [16]: Compound metabolized
Bacterial Biotransformation [17]: Compound metabolized
Bacterial Biotransformation [18]: Compound metabolized
Bacterial Biotransformation [19]: Compound metabolized
Bacterial Biotransformation [20]: Compound metabolized
Bacterial Biotransformation [21]: Compound metabolized
Bacterial Biotransformation [22]: Compound metabolized
Bacterial Biotransformation [23]: Compound metabolized
Bacterial Biotransformation [24]: Compound metabolized
Bacterial Biotransformation [25]: Compound metabolized

COc1c(C)c2c(c(O)c1C/C=C(\C)CCC(=O)OCCN1CCOCC1)C(=O)OC2 [MYCOPHENOLATE MOFETIL]
Bacterial Biotransformation [1]: Compound metabolized
Bacterial Biotransformation [2]: Compound metabolized
Bacterial Biotransformation [3]: Compound metabolized
Bacterial Biotransformation [4]: Compound NOT metabolized
Bacterial Biotransformation [5]: Compound metabolized
Bacterial Biotransformation [6]: Compound metabolized
Bacterial Biotransformation [7]: Compound metabolized
Bacterial Biotransformation [8]: Compound NOT metabolized
Bacterial Biotransformation [9]: Compound NOT metabolized
Bacterial Biotransformation [10]: Compound metabolized
Bacterial Biotransformation [11]: Compound NOT metabolized
Bacterial Biotransformation [12]: Compound NOT metabolized
Bacterial Biotransformation [13]: Compound metabolized
Bacterial Biotransformation [14]: Compound metabolized
Bacterial Biotransformation [15]: Compound metabolized
Bacterial Biotransformation [16]: Compound metabolized
Bacterial Biotransformation [17]: Compound metabolized
Bacterial Biotransformation [18]: Compound metabolized
Bacterial Biotransformation [19]: Compound metabolized
Bacterial Biotransformation [20]: Compound metabolized
Bacterial Biotransformation [21]: Compound metabolized
Bacterial Biotransformation [22]: Compound metabolized
Bacterial Biotransformation [23]: Compound metabolized
Bacterial Biotransformation [24]: Compound metabolized
Bacterial Biotransformation [25]: Compound metabolized

COc1c(C)c2c(c(O)c1C/C=C(\C)CCC(=O)O)C(=O)OC2 [MYCOPHENOLIC ACID]
Bacterial Biotransformation [1]: Compound NOT metabolized
Bacterial Biotransformation [2]: Compound NOT metabolized
Bacterial Biotransformation [3]: Compound NOT metabolized
Bacterial Biotransformation [4]: Compound NOT metabolized
Bacterial Biotransformation [5]: Compound NOT metabolized
Bacterial Biotransformation [6]: Compound NOT metabolized
Bacterial Biotransformation [7]: Compound NOT metabolized
Bacterial Biotransformation [8]: Compound NOT metabolized
Bacterial Biotransformation [9]: Compound NOT metabolized
Bacterial Biotransformation [10]: Compound NOT metabolized
Bacterial Biotransformation [11]: Compound NOT metabolized
Bacterial Biotransformation [12]: Compound NOT metabolized
Bacterial Biotransformation [13]: Compound NOT metabolized
Bacterial Biotransformation [14]: Compound NOT metabolized
Bacterial Biotransformation [15]: Compound NOT metabolized
Bacterial Biotransformation [16]: Compound NOT metabolized
Bacterial Biotransformation [17]: Compound NOT metabolized
Bacterial Biotransformation [18]: Compound NOT metabolized
Bacterial Biotransformation [19]: Compound NOT metabolized
Bacterial Biotransformation [20]: Compound NOT metabolized
Bacterial Biotransformation [21]: Compound NOT metabolized
Bacterial Biotransformation [22]: Compound NOT metabolized
Bacterial Biotransformation [23]: Compound NOT metabolized
Bacterial Biotransformation [24]: Compound NOT metabolized
Bacterial Biotransformation [25]: Compound NOT metabolized
